# Measurements published in patent publication US6608061B2, “Bisaryl compound and medicament for cancer treatment comprising the same” (Kyoma Hakko Kogyo Co., Ltd., priority 1997, dated 2003).
# Like-named read-outs stand apart in the source and are kept apart here.
# Key:
# [1] = tested on: human lung cancer Lu-65 cells; assay: Antineoplastic effect against human lung cancer Lu-65 cells transplanted to nude mice; assay type: in vivo, nude mice BALB/cAJcl-nu; settings: Lu-65 s.c. in nude mice; 1000 (500 × 2) mg/kg/day intraperitoneally twice a day for 5 days; evaluation day 7
# Text: Antineoplastic Effect Against Human Lung Cancer Lu-65 Cells
# 2 mm cubes (tumor fragments of 8 mm^3) of human lung cancer Lu-65 cells were subcutaneously transplanted to nude mice BALB/cAJcl-nu (CLEA JAPAN) on their abdomens. When the tumor volume reached to from 50 to 300 mm^3 after the transplantation, the mice were arbitrarily divided into groups each consisting of 5 mice, and intraperitoneally administered with a drug solution twice a day for 5 days. After weighing compounds, the drug solution was prepared before use by dissolving the drug in 99.5% ethanol (final concentration: 5%, analytical grade, Kanto Kagaku), adding CREMOPHOR EL (a derivative of caster oil and ethylene oxide, final concentration: 10%, Sigma Chemical) to the solution, and suspending the solution in physiological saline (Otsuka Physiological Saline for Injection, Otsuka Pharmaceutical). For evaluation of the effect, a tumor volume was calculated in accordance with Equation 1, a ratio of tumor volume (V) after the administration of drug solution to tumor volume (V0) before the administration of drug solution was calculated (V/V0), and the ratio was compared with that for the untreated group to determine T/C (Equation 2). [formula]
# [2] = biological target: T1, human RNR (purified R1 and R2 subunits) (Homo sapiens, UniProt P23921+P31350); assay: In vitro measurement of human RNR inhibitory activity (conversion of CDP to dCDP, HPLC); assay type: biochemical; settings: 100 μM CDP, 37° C., 30 minutes, read-out: RNR Inhibition (IC50)
# T1 construct: made in house; host or cells: Escherichia coli BL21(λDE3)pLysS, plasmids pETR1 and pETR2 (pET3a backbone)
# T1 sequence (P23921 1-792): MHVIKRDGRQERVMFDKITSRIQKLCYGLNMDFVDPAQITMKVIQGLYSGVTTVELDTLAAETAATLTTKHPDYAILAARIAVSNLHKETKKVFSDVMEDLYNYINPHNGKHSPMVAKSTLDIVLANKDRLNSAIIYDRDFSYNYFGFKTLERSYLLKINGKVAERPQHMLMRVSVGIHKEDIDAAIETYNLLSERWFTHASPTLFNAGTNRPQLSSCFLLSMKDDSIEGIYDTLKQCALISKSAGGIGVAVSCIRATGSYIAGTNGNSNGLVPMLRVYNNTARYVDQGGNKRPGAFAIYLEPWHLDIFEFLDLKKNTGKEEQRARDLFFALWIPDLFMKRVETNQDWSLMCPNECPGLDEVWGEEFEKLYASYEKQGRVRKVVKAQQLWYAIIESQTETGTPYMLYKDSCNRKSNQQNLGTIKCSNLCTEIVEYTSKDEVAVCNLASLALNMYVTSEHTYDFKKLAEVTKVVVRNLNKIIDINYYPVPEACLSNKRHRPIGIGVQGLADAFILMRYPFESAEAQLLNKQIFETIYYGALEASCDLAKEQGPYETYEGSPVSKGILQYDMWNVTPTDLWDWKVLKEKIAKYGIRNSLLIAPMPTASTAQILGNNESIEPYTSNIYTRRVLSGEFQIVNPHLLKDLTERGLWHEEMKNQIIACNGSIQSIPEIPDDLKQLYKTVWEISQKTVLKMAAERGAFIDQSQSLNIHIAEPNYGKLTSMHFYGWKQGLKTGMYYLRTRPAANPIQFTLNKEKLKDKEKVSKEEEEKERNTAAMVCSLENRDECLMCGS
# T1 sequence (P31350 1-389): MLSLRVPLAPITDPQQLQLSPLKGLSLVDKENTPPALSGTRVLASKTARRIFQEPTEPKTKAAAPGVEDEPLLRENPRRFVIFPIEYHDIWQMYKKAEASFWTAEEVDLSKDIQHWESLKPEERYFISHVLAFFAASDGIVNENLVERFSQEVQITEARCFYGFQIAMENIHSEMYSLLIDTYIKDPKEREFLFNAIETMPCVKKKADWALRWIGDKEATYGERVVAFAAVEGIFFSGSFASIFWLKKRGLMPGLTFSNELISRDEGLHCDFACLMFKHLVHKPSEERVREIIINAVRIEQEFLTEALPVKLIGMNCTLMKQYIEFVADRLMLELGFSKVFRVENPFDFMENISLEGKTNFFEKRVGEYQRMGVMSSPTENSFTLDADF
# HeLa S3 cells = assay: Test for growth inhibition of HeLa S3 cells; assay type: cell-based
# Procedure: Test for Growth Inhibition of Hela S3 Cells
# HeLa S3 cells prepared at 1×10^4 cells/ml in MEM culture medium containing 10% fetal bovine serum and 2 mM glutamine were added to each well of a 96-well microtiter plate (0.1 ml for each well). The cells were cultured at 37° C. in a CO2 incubator for 24 hours, and then 0.05 ml of test compound appropriately diluted with the above medium was added to each well, and then the mixture was cultured at 37° C. in a CO2 incubator for 72 hours. After the culture supernatant was removed, each well was washed with 0.1 ml of PBS buffer twice, and 0.1 ml of the aforementioned medium was added to each well again.
# Cell Proliferation Kit II (Boehringer Mennheim) was used for measurement of cell number in each well. After a coloring reaction reagent was added, the plate was warmed to 37° C. in a CO2 incubator for 3 hours. Then, absorbances at 490 nm and 655 nm were measured by a microplate reader, and a value (difference of absorbance) was calculated for each well by subtracting the absorbance at […] from the absorbance at 490 nm. By comparing the differences of absorbance for cells without treatment and cells treated with a test compound at a known concentration, a concentration of test compound which inhibited the cell growth by 50% was calculated, and the value obtained was determined as IC50. The values of RNR inhibitory activity obtained in Example 8, and the values of cell growth inhibitory activity obtained in Example 9 are shown in the following tables (the compound numbers used in the tables correspond to the compound numbers shown in the aforementioned tables).
# [3] = tested on: human ovary cancer A2780 cells; assay: Antineoplastic effect against human ovary cancer A2780 cells transplanted to nude mice; assay type: in vivo, nude mice BALB/cAJcl-nu; settings: Mus musculus, read-out: Antitumor activity T/C
# Text: Antineoplastic Effect Against Human Ovary Cancer A2780 Cells
# 2 mm cubes (tumor fragments of 8 mm^3) of human ovary cancer A2780 cells were subcutaneously transplanted to nude mice BALB/cAJcl-nu (CLEA JAPAN) in the abdomens. When the tumor volume reached to from 50 to 300 mm^3 after the transplantation, the mice were arbitrarily divided into groups each consisting of 5 mice, and intraperitoneally administered with a drug solution once a day for 5 days. After weighing compounds, the drug solution was prepared before use by dissolving the drug in 99.5% ethanol (final concentration: 5%, analytical grade, Kanto Kagaku) or N,N-dimethylacetamide (final concentration: 5%, analytical grade, Kanto Kagaku), adding CREMOPHOR EL (a derivative of caster oil and ethylene oxide, final concentration: 10%, Sigma Chemical) to the solution, and suspending the solution in physiological saline (Otsuka Physiological Saline for Injection, Otsuka Pharmaceutical). For evaluation of the effect, a tumor volume was calculated in accordance with Equation 1, a ratio of tumor volume (V) after the administration of drug solution to tumor volume (V0) before the administration of drug solution was calculation (V/V0), and the ratio was compared with that for the untreated group to determine T/C (Equation 2). In the table, administration dose, T/C and evaluation day are shown. [formula]
# [4] = Homo sapiens, HeLa S3, 72 h, HeLa S3 cells, 72 hours with test compound, Cell Proliferation Kit II, read-out: Cell growth inhibition (IC50)
# [5] = ip, 96 h, A2780 s.c. in nude mice, 500 mg/kg/day intraperitoneally once a day for 5 days, evaluation day 4
# [6] = ip, 168 h, A2780 s.c. in nude mice, 500 mg/kg/day intraperitoneally once a day for 5 days, evaluation day 7
SMILES,IC50 [2],IC50 (HeLa S3 cells; [4]),"response vs control in vivo at 500 mg/kg/day [3, 5]",other results
Oc1ccc(SCCOCCSc2ccc(O)cc2)cc1 [Compound 27],500 nM,,,"Antitumor activity T/C [1]: 0.25; IC50 (HeLa S3 cells; Homo sapiens, HeLa S3, 72 h, read-out: Cell growth inhibition (IC50, μM)): 1.53 µM; response vs control in vivo at 500 mg/kg/day ([3]; A2780, ip, 168 h): 46%"
CCCN(CCSc1ccc(O)cc1)CCSc1ccc(O)cc1 [Compound 72],1190 nM,2.18 µM,50%,
N#CCN(CCSc1ccc(O)cc1)CCSc1ccc(O)cc1 [Compound 77],60 nM,2.38 µM,54%,
NC(=O)CCN(CCSc1ccc(O)cc1)CCSc1ccc(O)cc1 [Compound 78],310 nM,1.61 µM,53%,
CN(C)C(=O)CCN(CCSc1ccc(O)cc1)CCSc1ccc(O)cc1 [Compound 79],1370 nM,3.06 µM,40%,
Oc1ccc(SCCN(CCSc2ccc(O)cc2)Cc2ccncc2)cc1 [Compound 91],1690 nM,2.72 µM,48%,
Oc1ccc(CN(CCSc2ccc(O)cc2)CCSc2ccc(O)cc2)cc1 [Compound 94],460 nM,4 µM,,"response vs control in vivo at 500 mg/kg/day [3, 6]: 53%"
NC(=O)CN(CCSc1ccc(O)cc1)CCSc1ccc(O)cc1 [Compound 97],,,,"melting point: 105 to 106 °C; IC50 (HeLa S3 cells; HeLa S3 cells, 72 hours with test compound, Cell Proliferation Kit II, read-out: Cell growth inhibition (IC50)): 0.88 µM; response vs control in vivo at 500 mg/kg/day [3, 6]: 43%"
Oc1ccc(SCCN(CCSc2ccc(O)cc2)Cc2ccccn2)cc1 [Compound 100],1580 nM,4.97 µM,,melting point: 80 to 81 °C
OCCN(CCSc1ccc(O)cc1)CCSc1ccc(O)cc1 [Compound 102],690 nM,1.42 µM,,"response vs control in vivo at 500 mg/kg/day [3, 6]: 47%"
COCCCN(CCSc1ccc(O)cc1)CCSc1ccc(O)cc1 [Compound 103],2110 nM,1.74 µM,50%,
Oc1ccc(SCCOCCSc2ccc(O)c(F)c2)cc1F [Compound 190],1380 nM,16.9 µM,,melting point: 87 to 88 °C
NC(=O)C1CCCCN1C(=O)CN(CCSc1ccc(O)cc1)CCSc1ccc(O)cc1 (stereo not shown) [Compound 209],2670 nM,3.09 µM,,"response vs control in vivo at 500 mg/kg/day [3, 6]: 50%"
O=C(CN(CCSc1ccc(O)cc1)CCSc1ccc(O)cc1)Nc1ncccn1 [Compound 211],3240 nM,3.04 µM,,"response vs control in vivo at 500 mg/kg/day ([3]; ip, 216 h, A2780 s.c. in nude mice, 500 mg/kg/day intraperitoneally once a day for 5 days, evaluation day 9): 37%"
